Reference: ChEMBL document CHEMBL4813910, “Curse or Cure? A Perspective on the Developability of Aldehydes as Active Pharmaceutical Ingredients” (J Med Chem, 2020)
pIC50: −log10 of the molar value. Each block holds one compound with its values, some of them ahead of it.

What was measured:
[1] = Protein binding in human plasma incubated for 240 mins by equilibrium dialysis; assay type: ADME, cell-free; settings: read-out: PPB (converted)
[2] = target: Serine/threonine-protein kinase/endoribonuclease IRE1 (Mus musculus, UniProt Q9EQY0); assay: Inhibition of mouse IRE1 assessed as reduction in XBP1 splicing using 5'-Alexa Fluor 647-CAUGUCCGCAGCGCAUG-BHQ1-3' as substrate preincubated for 30 mins followed by substrate addition by FRET assay
[3] = Cmax in human plasma at 37 mg/kg, po by HPLC method; assay type: ADME, organism-based; parameters: route oral, dose 37 mg/kg
[4] = AUC (0 to 24 hrs) in human erythrocytes at 37 mg/kg, po by HPLC method; assay type: ADME, organism-based, Erythrocyte; parameters: time < 24 hr, route oral, dose 37 mg/kg
[5] = Half life in human plasma at 37 mg/kg, po by HPLC method; assay type: ADME, organism-based
[6] = AUC (0 to 24 hrs) in human plasma at 37 mg/kg, po by HPLC method; assay type: ADME, organism-based; parameters: time < 24 hr, route oral, dose 37 mg/kg; settings: in vivo
[7] = Ratio of drug level in human erythrocytes to plasma at 20 mg/kg, iv measured over 1 hr; assay type: ADME, organism-based
[8] = Tmax in human erythrocytes at 37 mg/kg, po by HPLC method; assay type: ADME, organism-based, Erythrocyte
[9] = Half life in human erythrocytes at 37 mg/kg, po by HPLC method; assay type: ADME, organism-based, Erythrocyte
[10] = Tmax in human plasma at 37 mg/kg, po by HPLC method; assay type: ADME, organism-based
[11] = Cmax in human erythrocytes at 37 mg/kg, po; assay type: ADME, organism-based, Erythrocyte; parameters: route oral, dose 37 mg/kg
[12] = Half life in mouse at 1 mg/kg, iv; assay type: ADME, organism-based; settings: in vivo
[13] = Cmax in mouse at 3 mg/kg, po; assay type: ADME, organism-based; parameters: route oral, dose 3 mg/kg; settings: in vivo
[14] = AUC (0 to 24 hrs) in mouse at 3 mg/kg, po; assay type: ADME, organism-based; parameters: time < 24 hr, route oral, dose 3 mg/kg; settings: in vivo
[15] = Oral bioavailability in mouse at 3 mg/kg; assay type: ADME, organism-based; settings: in vivo
[16] = AUC (0 to 24 hrs) in mouse at 1 mg/kg, iv; assay type: ADME, organism-based; parameters: time < 24 hr, route intravenous, dose 1 mg/kg; settings: in vivo
[17] = Clearance in mouse at 1 mg/kg, iv; assay type: ADME, organism-based; settings: in vivo
[18] = Volume of distribution at steady state in mouse at 1 mg/kg, iv; assay type: ADME, organism-based; settings: in vivo, read-out: Vdss
[19] = Tmax in mouse at 3 mg/kg, po; assay type: ADME, organism-based; settings: in vivo
[20] = Half life in mouse plasma at 5 ug/ml incubated for 1 to 24 hrs by LC/MS/MS method; assay type: ADME, cell-free; settings: time 1-24 hrs, dose 5 µg/ml
[21] = Half life in dog plasma at 5 ug/ml incubated for 1 to 24 hrs by LC/MS/MS method; assay type: ADME, cell-free, Canis lupus familiaris; settings: time 1-24 hrs, dose 5 µg/ml
[22] = Half life in human plasma at 5 ug/ml incubated for 1 to 24 hrs by LC/MS/MS method; assay type: ADME, cell-free; settings: time 1-24 hrs, dose 5 µg/ml
[23] = Tmax in human at 3.36 mg, po; assay type: ADME; settings: in vivo
[24] = Drug metabolism in human assessed as pyridoxal-5-phosphate Cmax at 3.36 mg, po; assay type: ADME; parameters: route oral, dose 3.36 mg; settings: in vivo
[25] = Drug excretion in human urine at 3.36 mg, po measured within 24 hrs; assay type: ADME, organism-based; settings: in vivo
[26] = Drug excretion in human assessed as time of maximum urinary excretion of pyridoxic-acid at 3.36 mg, po; assay type: ADME; settings: in vivo
[27] = Drug excretion in human urine assessed as maximum urinary excretion of pyridoxic-acid at 3.36 mg, po; assay type: ADME, tissue-based; settings: in vivo
[28] = Drug metabolism in human assessed as pyridoxal-5-phosphate Tmax at 3.36 mg, po; assay type: ADME; settings: in vivo
[29] = Cmax in human at 3.36 mg, po measured for 7 days; assay type: ADME, organism-based; parameters: route oral, time 7 day, dose 3.36 mg; settings: in vivo
[30] = Drug metabolism in human assessed as pyridoxal-5-phosphate Tmax at 4 mg, po; assay type: ADME; settings: in vivo
[31] = Drug excretion in human urine assessed as time of maximum urinary excretion of pyridoxic-acid at 4 mg, po; assay type: ADME, tissue-based; settings: in vivo
[32] = Tmax in human at 4 mg, po; assay type: ADME; settings: in vivo
[33] = Drug excretion in human urine assessed as maximum urinary excretion of pyridoxic-acid at 4 mg, po; assay type: ADME; settings: in vivo, 24 h
[34] = Drug excretion in human urine at 4 mg, po measured within 24 hrs; assay type: ADME, organism-based; settings: in vivo
[35] = Cmax in human at 4 mg, po; assay type: ADME; parameters: route oral, dose 4 mg; settings: in vivo
[36] = Drug metabolism in human assessed as pyridoxal-5-phosphate Cmax at 4 mg, po; assay type: ADME; parameters: route oral, dose 4 mg; settings: in vivo

Sequence of Serine/threonine-protein kinase/endoribonuclease IRE1 (Q9EQY0 whole entry): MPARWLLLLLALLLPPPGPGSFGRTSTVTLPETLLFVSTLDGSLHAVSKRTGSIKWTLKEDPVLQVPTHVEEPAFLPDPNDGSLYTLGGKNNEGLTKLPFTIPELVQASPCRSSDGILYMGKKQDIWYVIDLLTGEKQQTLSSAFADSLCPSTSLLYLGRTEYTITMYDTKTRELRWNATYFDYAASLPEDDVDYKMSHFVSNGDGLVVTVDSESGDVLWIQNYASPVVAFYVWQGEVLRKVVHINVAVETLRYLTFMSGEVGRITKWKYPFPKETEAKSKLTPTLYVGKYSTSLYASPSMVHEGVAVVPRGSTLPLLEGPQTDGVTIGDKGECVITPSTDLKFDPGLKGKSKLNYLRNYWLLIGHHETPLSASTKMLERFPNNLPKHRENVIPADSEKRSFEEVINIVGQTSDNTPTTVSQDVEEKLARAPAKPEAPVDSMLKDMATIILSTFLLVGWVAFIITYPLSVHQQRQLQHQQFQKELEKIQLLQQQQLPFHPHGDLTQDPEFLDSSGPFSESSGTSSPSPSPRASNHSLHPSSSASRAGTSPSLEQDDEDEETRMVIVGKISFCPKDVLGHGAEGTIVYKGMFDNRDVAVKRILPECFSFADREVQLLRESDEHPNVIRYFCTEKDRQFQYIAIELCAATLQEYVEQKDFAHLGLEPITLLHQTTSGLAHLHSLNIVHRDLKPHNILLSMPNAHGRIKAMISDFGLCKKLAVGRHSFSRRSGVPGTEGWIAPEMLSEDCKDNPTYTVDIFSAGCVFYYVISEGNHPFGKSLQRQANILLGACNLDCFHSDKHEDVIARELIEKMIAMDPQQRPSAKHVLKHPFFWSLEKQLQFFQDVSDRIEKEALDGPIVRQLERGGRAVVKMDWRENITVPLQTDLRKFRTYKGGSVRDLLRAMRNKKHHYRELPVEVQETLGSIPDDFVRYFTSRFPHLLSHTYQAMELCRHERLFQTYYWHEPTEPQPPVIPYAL

pIC50 [2]: > 7.00
SMILES: COc1cc2c(C)c(CC(=O)N3CCOCC3)c(=O)oc2c(C=O)c1O

half-life [12]: 1.4 h | Cmax [13]: 0.2 µM | AUC [14]: 0.25 µM·h | F [15]: 21% | AUC [16]: 1.16 µM·h | clearance [17]: 28 mL/min/kg | Vd [18]: 2.3 L/kg | Tmax [19]: 2 h
SMILES: COCCNc1cc(NC(=O)N2CCCc3cc(CN4CCN(C)CC4=O)c(C=O)nc32)ncc1C#N [FGF401]

Tmax [23]: 0.5 h | Cmax [24]: 0.018 µM | Drug excretion [25]: 1.2 µmol | Time [26]: 1 h | Drug excretion [27]: 1.6 µmol/h | Tmax [28]: 1 h | Cmax [29]: 0.28 µM
SMILES: Cc1ncc(CO)c(C=O)c1O [PYRIDOXAL]

Tmax [30]: 3 h | Time [31]: 3 h | Tmax [32]: 1 h | Drug excretion [33]: 0.7 µmol/h | Drug excretion [34]: 1.5 µmol | Cmax [35]: 0.06 µM | Cmax [36]: 0.03 µM
SMILES: Cc1ncc(CO)c(CO)c1O [PYRIDOXINE]

Continued, compound first:

SMILES: CN1CCC(=C2c3ccccc3CCn3c(C(=O)O)cnc32)CC1
fraction unbound at 4 h [1]: 0.37

SMILES: O=Cc1c(O)cccc1OCc1ccc(C(=O)O)cc1 [TUCARESOL]
Cmax [3]: 271 µM | AUC(0-t) at 24 h [4]: 579 µM·h | half-life [5]: 223 h | AUC [6]: 62 µM·h | Kp at 1 h [7]: < 11.2 | Tmax [8]: 24 h | half-life [9]: 120 h | Tmax [10]: 7.5 h | Cmax [11]: 2460 µM

SMILES: Cc1cc2c(C(C)C)c(O)c(O)cc2c(O)c1-c1c(C)cc2c(C(C)C)c(O)c(O)cc2c1O [APOGOSSYPOL]
half-life at 5 ug/ml [20]: < 1 h | half-life at 5 ug/ml [21]: < 1 h | half-life at 5 ug/ml [22]: < 1 h
